The text below walks through data of patent US20010003744A1, “Therapeutic compounds” (priority 1994, published 2001).

SMILES strings stand for the structures.

Data set [1] is described as follows: Compound cytotoxicity on uninfected MRC5 monolayers, microscopic examination. Type of data set: cell-based, human. As to conditions: human, uninfected MRC5 cell monolayers (human embryonic lung cells); uninfected MRC5 cells, 5 days, estimated from microscopic examination; read-out: MRC5 tox CC50. The method, then:
(§1) HCMV strain AD169 was grown on monolayers of human embryonic lung cells (MRC5 cells) in 96 well plates. After infection of the cells at a ratio of approximately 0.01 infectious virus particles per cell, the compounds to be tested were added to selected wells at six different concentrations, each in triplicate. The same concentrations of compound were also applied to wells containing monolayers of uninfected cells in order to assess compound cytotoxicity. The plates were incubated for 5 days, and the minimum cytotoxic dose was estimated from microscopic examination. The IC50 for antiviral effect was estimated from measurements of HCMV DNA in each well by blotting and quantitive specific DNA hybridization, similar to the method of Gadler. (Antimicrob. Agents Chemother. 1983, 24, 370-374).

The subject of another data set is HCMV strain AD169. Put plainly: Human Cytomegalovirus (HCMV) assay, HCMV DNA hybridization. Format: cell-based. As to conditions: HCMV strain AD169 on MRC5 cells, 5 days, HCMV DNA by blotting and hybridization. As to the method: as §1
For a further data set, the system named is MRC5 cells. Put plainly: Compound cytotoxicity on uninfected MRC5 monolayers, microscopic examination. Format: cell-based, human. The method, then:
as §1

The compound `CNc1nc2cc(Cl)c(Cl)cc2n1[C@H]1O[C@@H](CO)[C@H](O)[C@@H]1O` [Example 33, 5,6-Dichloro-2-(methylamino)-1-(beta-L-ribofuranosyl)-1H-benzimidazole] yielded a melting point of 238 to 240 °C. `OC[C@@H]1O[C@H](n2c(NCC3CC3)nc3cc(Cl)c(Cl)cc32)[C@@H](O)[C@H]1O` [Example 23, 2-((Cyclopropylmethyl)amino)-5,6-dichloro-1-(beta-L-ribofuranosyl)-1H-benzimidazole] yielded a melting point of 229 to 230 °C. For `CCC(C)Nc1nc2cc(Cl)c(Cl)cc2n1[C@H]1O[C@@H](CO)[C@H](O)[C@@H]1O` (stereo partly drawn) [Example 19, 2-(sec-Butylamino)-5,6-dichloro-1-(beta-L-ribofuranosyl)-1H-benzimidazole], the melting point lay in the range of 121 to 122 °C. Same read-out and setting: for `CC(C)(C)Nc1nc2cc(Cl)c(Cl)cc2[nH]1` [Example 26, 2-(tert-Butylamino)-5,6-dichloro-1H-benzimidazole] the value was 219 to 221 °C; for `C#CCNc1nc2cc(Cl)c(Cl)cc2n1[C@H]1O[C@@H](CO)[C@H](O)[C@@H]1O` [Example 9, 5,6-Dichloro-2-(propargylamino)-1-(beta-L-ribofuranosyl)-1H-benzimidazole], 182 to 184 °C. The same measure, in the same setting: the value for `CC(=O)OC[C@@H]1O[C@H](n2c(Br)nc3cc(Cl)c(Cl)cc32)[C@@H](OC(C)=O)[C@H]1OC(C)=O` [Example 1, 2-Bromo-5,6-dichloro-1-(2,3,5-tri-O-acetyl-beta-L-ribofuranosyl)-1H-benzimidazole] was less than 65 °C. On to `CC(C)Nc1nc2cc(Cl)c(Cl)cc2n1[C@H]1O[C@@H](CO)[C@H](O)[C@@H]1O` [Example 5, 5,6-Dichloro-2-(isopropylamino)-1-(beta-L-ribofuranosyl)-1H-benzimidazole], for which the CC50 at 5 days in data set [1] is 100 µM. This compound also yielded an IC50 in the data set on HCMV strain AD169 (Human betaherpesvirus 5, 120 h) of 0.03 to 0.05 µM.

As to `OC[C@@H]1O[C@H](n2c(Br)nc3cc(Cl)c(Cl)cc32)[C@@H](O)[C@H]1O` [Example 2, 2-Bromo-5,6-dichloro-1-(beta-L-ribofuranosyl)-1H-benzimidazole], the melting point came out at 169 °C. For `CCNc1nc2cc(Cl)c(Cl)cc2n1[C@H]1O[C@@H](CO)[C@H](O)[C@@H]1O` [Example 34, 5,6-Dichloro-2-(ethylamino)-1-(beta-L-ribofuranosyl)-1H-benzimidazole], the melting point was 155 to 157 °C. Further, in data set [1], the CC50 at 5 days was 100 µM. In the data set on HCMV strain AD169 (Human betaherpesvirus 5, 120 h), this compound displayed an IC50 of 0.75 to 0.85 µM. With `C=CCNc1nc2cc(Cl)c(Cl)cc2n1[C@H]1O[C@@H](CO)[C@H](O)[C@@H]1O` [Example 4, 2-(Allylamino)-5,6-dichloro-1-(beta-L-ribofuranosyl)-1H-benzimidazole], the melting point was 220 °C (dec.). Further, the CC50 at 5 days in data set [1] is 100 µM. Besides, the IC50 in the data set on HCMV strain AD169 (Human betaherpesvirus 5, 120 h) lay in the range of 0.91 to 2.5 µM. Take `OC[C@@H]1O[C@H](n2c(NCc3ccccc3)nc3cc(Cl)c(Cl)cc32)[C@@H](O)[C@H]1O` [Example 7, 2-(Benzylamino)-5,6-dichloro-1-(beta-L-ribofuranosyl)-1H-benzimidazole]: the melting point was 123 °C. The compound `OC[C@@H]1O[C@@H](n2c(NC3CC3)nc3cc(Cl)c(Cl)cc32)[C@@H](O)[C@H]1O` [Example 35, 2-Cyclopropylamino-5,6-dichloro-1-(alpha-L-ribofuranosyl)-1H-benzimidazole] showed a melting point of 140 to 141 °C. For the compound `OCCNc1nc2cc(Cl)c(Cl)cc2n1[C@H]1O[C@@H](CO)[C@H](O)[C@@H]1O` [Example 12, 2-((5,6-Dichloro-1-(beta-L-ribofuranosyl)-1H-benzimidazol-2-yl)amino)ethanol], the CC50 at 5 days in data set [1] is 100 µM. The IC50 in the data set on HCMV strain AD169 (Human betaherpesvirus 5, 120 h) is 3.5 to 5.8 µM. Take `CCCNc1nc2cc(Cl)c(Cl)cc2n1[C@H]1O[C@@H](CO)[C@H](O)[C@@H]1O` [Example 10, 5,6-Dichloro-2-(n-propylamino)-1-(beta-L-ribofuranosyl)-1H-benzimidazole]: the melting point was in the range of 231 to 233 °C. Also, the CC50 at 5 days in data set [1] was 100 µM. In the data set on HCMV strain AD169 (Human betaherpesvirus 5, 120 h), this compound registered an IC50 of 1.1 to 1.3 µM. `OC[C@@H]1O[C@H](n2c(NC3CCC3)nc3cc(Cl)c(Cl)cc32)[C@@H](O)[C@H]1O` [Example 20, 2-(Cyclobutylamino)-5,6-dichloro-1-(beta-L-ribofuranosyl)-1H-benzimidazole] came in with a melting point of 220 to 221 °C. For `CC(C)(C)Nc1nc2cc(Cl)c(Cl)cc2n1[C@H]1O[C@@H](CO)[C@H](O)[C@@H]1O` [Example 24, 2-(tert-Butylamino)-5,6-dichloro-1-(beta-L-ribofuranosyl)-1H-benzimidazole], the melting point was in the range of 118 to 120 °C. The same measure, in the same setting: the value for `Nc1nc2cc(Cl)c(Cl)cc2n1[C@H]1O[C@@H](CO)[C@H](O)[C@@H]1O` [Example 27, 2-Amino-5,6-dichloro-1-(beta-L-ribofuranosyl)-1H-benzimidazole] was 110 to 112 °C; that for `CCCCNc1nc2cc(Cl)c(Cl)cc2n1[C@H]1O[C@@H](CO)[C@H](O)[C@@H]1O` [Example 18, 2-(n-Butylamino)-5,6-dichloro-1-(beta-L-ribofuranosyl)-1H-benzimidazole] was 220 to 222 °C. The same measure, in the same setting: for `CC(C)CNc1nc2cc(Cl)c(Cl)cc2n1[C@H]1O[C@@H](CO)[C@H](O)[C@@H]1O` [Example 11, 5,6-Dichloro-2-(isobutylamino)-1-(beta-L-ribofuranosyl)-1H-benzimidazole] the value was 136 °C. `OC[C@@H]1O[C@H](n2c(N3CCC3)nc3cc(Cl)c(Cl)cc32)[C@@H](O)[C@H]1O` [Example 8, 2-Azetidino-5,6-dichloro-1-(beta-L-ribofuranosyl)-1H-benzimidazole] showed a CC50 in the data set on MRC5 cells of 100 µM. In the data set with HCMV strain AD169, the midpoint of inhibition, the IC50, lay at 41 µM. In turn, `OC[C@@H]1O[C@H](n2c(NCCN3CCCC3)nc3cc(Cl)c(Cl)cc32)[C@@H](O)[C@H]1O` [Example 22, 5,6-Dichloro-2-((2-(1-pyrrolidinyl)ethyl)amino)-1-(beta-L-ribofuranosyl)-1H-benzimidazole] returned a melting point of 123 to 124 °C. Same read-out and setting: the value for `OC[C@@H]1O[C@H](n2c(NC3CCCC3)nc3cc(Cl)c(Cl)cc32)[C@@H](O)[C@H]1O` [Example 6, 2-(Cyclopentylamino)-5,6-dichloro-1-(beta-L-ribofuranosyl)-1H-benzimidazole] was 140 °C.
